The source of these data is paper PMC10461232, “Structure-Based Design of Transport-Specific Multitargeted One-Carbon Metabolism Inhibitors in Cytosol and Mitochondria” (Journal of Medicinal Chemistry, 2023).

In assay [1] the test system is PC43-10 (RFC) CHO cells. The experiment in a line: Growth inhibition, PC43-10 CHO cells expressing human RFC. The class given is cell-based, Chinese hamster. The settings on record: Cricetulus griseus, 96 h, read-out: IC50 PC43-10 (RFC).
For assay [2], the system named is HPNE (RFC) cells. In words: Proliferation inhibition, HPNE normal pancreatic epithelial cells. The settings on record: Homo sapiens, folate- and glycine-free RPMI, 25 nM leucovorin. Type of assay: cell-based. The source says: (§1) The RFC-, PCFT-, and FR-null MTXRIIOua^R2–4 (R2), and RFC- (PC43-10), PCFT- (R2/PCFT4), FRα- (RT16), and FRβ- (D4) expressing CHO sublines were previously described.[62]−[64],[76] HPAC pancreatic cancer cells were generously provided by Dr. Yubin Ge (Karmanos Cancer Institute, Detroit, MI). Human pancreatic normal epithelial (HPNE) cells[67] were a gift from M. Oulette (University of Nebraska Medical Center, Omaha, NE). KB human nasopharyngeal carcinoma cells were purchased from the American Type Culture Collection (Manassas, VA). All human cell lines were validated by STR analysis by Genetica DNA Laboratories (Burlington, NC). Cell lines were tested for Mycoplasma by PCR using a Mycloplasma testing kit (Venor GeM Mycoplasma Detection Kit, Sigma). Frozen stocks were generated from authenticated Mycoplasma-free cultures.

In assay [3] the test system is R2/PCFT4 (PCFT) CHO cells. In words: Growth inhibition, R2/PCFT4 CHO cells expressing human PCFT. The class given is cell-based, Chinese hamster. Conditions: Cricetulus griseus, 96 h, read-out: IC50 R2/PCFT4 (PCFT).
For assay [4], the system named is KB (RFC/PCFT/FRα) cells. In words: Growth inhibition, KB nasopharyngeal carcinoma cells. The class given is cell-based, human. The settings on record: Homo sapiens, KB, folate-free RPMI 1640, 2 nM leucovorin, mean (SE). The method, then:
The CHO cells were cultured in α-minimal essential medium (MEM) supplemented with 10% bovine calf serum (Fisher Scientific), penicillin (1000 U/mL)/streptomycin (1000 μg/mL), and 2 mM L-glutamine at 37 °C with 5% CO2. All of the R2 transfected cells (PC43-10, RT16, R2/PCFT4) were cultured in complete α-MEM media plus 1 mg/mL G418. Prior to the cytotoxicity assays (see below), RT16 and D4 cells were cultured for 3 days in complete folate-free RPMI 1640 (without added folate), and R2/PCFT4 and R2 cells were cultured in complete folate-free RPMI 1640 supplemented with dialyzed fetal bovine serum (Fisher Scientific) and 25 nM leucovorin plus 1 mg/mL G418. KB cells were routinely cultured in folate-free RPMI 1640 medium, supplemented with 10% fetal bovine serum (Fisher Scientific), penicillin-streptomycin solution, and 2 mM L-glutamine at 37 °C with 5% CO2.
For growth inhibition studies, cells (CHO, KB) were plated in 96-well dishes (∼2500–5000 cells/well, total volume of 200 μL medium) over a range of antifolate concentrations.[69],[77] The medium was folate-free RPMI 1640 with 10% dialyzed serum and antibiotics supplemented with 25 nM leucovorin for experiments with R2, PC43-10, and R2/PCFT4 cells. For experiments with RT16, D4, and KB cells, cells were cultured in folate-free RPMI medium with 10% dialyzed fetal bovine serum and antibiotics; the medium was supplemented with 2 nM leucovorin. […] Incubations were routinely for up to 96 h. Viable cells (reflecting cell viability) were assayed with Cell Titer Blue reagent (Promega, Madison, WI), with fluorescence measured (590 nm emission, 560 nm excitation) with a fluorescence plate reader.

For assay [5], the system named is RT16 (FRα) CHO cells. The experiment in a line: Growth inhibition, RT16 CHO cells expressing human FRα. Type of assay: cell-based, Chinese hamster. The settings on record: 96 h, mean (SE).
Assay [6] relates to R2 (MTXRIIOuaR2-4) CHO cells. The experiment in a line: Growth inhibition, transporter-null R2 CHO cells. Type of assay: cell-based, Chinese hamster. The settings on record: Cricetulus griseus, 96 h, read-out: IC50 R2.
For assay [7], the system named is D4 (FRβ) CHO cells. The experiment in a line: Growth inhibition, D4 CHO cells expressing human FRβ. Conditions: for IC50: Cricetulus griseus, CHO, 96 h, mean (SE); for difference between D4 (FRβ) and RT16 (FRα) IC50: RT16 versus D4 CHO cells. The class given is cell-based, Chinese hamster.
The subject of assay [8] is HPAC (RFC/PCFT) cells. The experiment in a line: Proliferation inhibition, HPAC pancreatic adenocarcinoma cells. The class given is cell-based, human. The settings on record: HPAC cells, folate- and glycine-free RPMI, 25 nM leucovorin, mean (SE).
From the text: as §1

The mark [9] stands for this setting: CHO cells expressing human RFC, 25 nM leucovorin, mean (SE).
Setting [10] is: CHO cells expressing human PCFT, 25 nM leucovorin, mean (SE).
Setting [11] is: Cricetulus griseus, CHO cells expressing human FRα, 2 nM leucovorin, read-out: IC50 RT16 (FRα).
Where [12] appears, read: transporter-null CHO cells, 25 nM leucovorin, mean (SE).
The mark [13] stands for this setting: CHO cells expressing human FRβ, 2 nM leucovorin, read-out: IC50 D4 (FRβ).

Molecules are shown by their SMILES. Like-named read-outs stand apart in the source and are kept apart here. A value given as a limit tells only on which side of the number the result lay.

For `Nc1nc2ccn(CCCCCc3ccc(C(=O)N[C@@H](CCC(=O)O)C(=O)O)s3)c2c(=O)[nH]1` [Compound 3], the IC50 is over 1000 nM in assay [1]; over 5000 nM in assay [2]; over 1000 nM in assay [3]; 7.47 nM in assay [4]; 14.6 nM in assay [5] (Cricetulus griseus, read-out: IC50 RT16 (FRα), CHO cells expressing human FRα, 96 h, 2 nM leucovorin); over 1000 nM in assay [6] (CHO). Further, the IC50 in assay [7] (read-out: IC50 D4 (FRβ), CHO cells expressing human FRβ, 96 h, 2 nM leucovorin) came out at 7.89 nM; in assay [8], 746 nM; in assay [8] (Homo sapiens, HPAC), 746 nM.
With `Nc1nc2ccn(CCCc3ccc(C(=O)N[C@@H](CCC(=O)O)C(=O)O)s3)c2c(=O)[nH]1` [Compound 4], the IC50 was over 1000 nM in assay [1] (setting [9]); over 5000 nM in assay [2]; 497 nM in assay [3] (setting [10]); 23.7 nM in assay [4]; 33 nM in assay [5] (setting [11]); over 1000 nM in assay [6] (setting [12]). For the same compound, the IC50 in assay [7] (setting [13]) was 1.94 nM; in assay [8] (Homo sapiens, HPAC), 2990 nM. Moreover, the “difference between D4 (FRβ) and RT16 (FRα) IC50” value (shortened to “difference between D4”) in assay [7] is given as 20- to 40 fold.
For `Nc1nc2ccn(CCCOc3ccc(C(=O)N[C@@H](CCC(=O)O)C(=O)O)cc3)c2c(=O)[nH]1` [Compound 5, (4-(3-(2-Amino-4-oxo-3,4-dihydro-5H-pyrrolo[3,2-d]pyrimidin-5-yl)propoxy)benzoyl)-L-glutamic Acid], the IC50 was over 1000 nM in assay [1] (setting [9]); over 5000 nM in assay [2]; over 1000 nM in assay [3] (setting [10]); 8.23 nM in assay [4]; 18.7 nM in assay [5] (setting [11]); over 1000 nM in assay [6] (setting [12]). The IC50 was 0.45 nM in assay [7] (setting [13]); 1670 nM in assay [8]; 1200 to 1600 nM in assay [8] (Homo sapiens, HPAC). In addition, the “difference between D4” value in assay [7] is listed as 20- to 40 fold.
For `Nc1nc2ccn(CCOc3ccc(C(=O)N[C@@H](CCC(=O)O)C(=O)O)cc3)c2c(=O)[nH]1` [Compound 6, (4-(3-(2-Amino-4-oxo-3,4-dihydro-5H-pyrrolo[3,2-d]pyrimidin-5-yl)ethoxy)benzoyl)-L-glutamic Acid], the IC50 in assay [1] (setting [9]) was over 1000 nM; in assay [2], over 5000 nM; in assay [3] (setting [10]), 431 nM; in assay [4], 11.2 nM; in assay [5] (setting [11]) it was 67.7 nM; in assay [6] (setting [12]) it was over 1000 nM. In addition, the IC50 was found to be 1.62 nM in assay [7] (setting [13]) and 4620 nM in assay [8] (Homo sapiens, HPAC). Further, the “difference between D4” value in assay [7] is 20- to 40 fold.
As for `Nc1nc2ccn(CCCNc3ccc(C(=O)N[C@@H](CCC(=O)O)C(=O)O)cc3)c2c(=O)[nH]1` [Compound 8, (4-((3-(2-Amino-4-oxo-3,4-dihydro-5H-pyrrolo[3,2-d]pyrimidin-5-yl)propyl)amino)benzoyl)-L-glutamic Acid], the IC50 is over 1000 nM in assay [1] (setting [9]); over 5000 nM in assay [2]; over 1000 nM in assay [3] (setting [10]); 6.17 nM in assay [4]; 6.88 nM in assay [5] (setting [11]); over 1000 nM in assay [6] (setting [12]). Besides, in assay [8] (Homo sapiens, HPAC), the IC50 is over 5000 nM.
On to `Nc1nc2ccn(CCCCCc3ccc(C(=O)N[C@@H](CCC(=O)O)C(=O)O)cc3)c2c(=O)[nH]1` [Compound 9], for which the IC50 in assay [1] (setting [9]) is over 1000 nM; in assay [2], over 5000 nM; in assay [3] (setting [10]), over 1000 nM; in assay [4], 6.3 nM; in assay [5] (setting [11]), 13.5 nM; in assay [6] (setting [12]), over 1000 nM. The IC50 was determined as 6.33 nM in assay [7] (setting [13]) and 1620 nM in assay [8] (Homo sapiens, HPAC).
As to `Nc1nc2ccn(CCCCc3ccc(C(=O)N[C@@H](CCC(=O)O)C(=O)O)cc3)c2c(=O)[nH]1` [Compound 15], the IC50 is over 1000 nM in assay [1] (setting [9]); over 5000 nM in assay [2]; over 1000 nM in assay [3] (setting [10]); 6.81 nM in assay [4]; 1.64 nM in assay [5] (CHO cells expressing human FRα, 2 nM leucovorin, read-out: IC50 RT16 (FRα)); under 3 nM in assay [5] (setting [11]). In addition, the IC50 in assay [6] (setting [12]) was over 1000 nM; in assay [8] (Homo sapiens, HPAC), 2590 nM.
